Assay results: patent US9062124B2, “GIP-based mixed agonists for treatment of metabolic disorders and obesity” (priority 2008, dated 2015)
Read-outs that look alike come from different tables or passages of the source. Where a SMILES comes first, the peptide text is derived from it. Bridges are numbered along the chain shown (N, C = ends). Where no end group is shown, it is not given here. [ ]: non-standard residue; d: D form. The star is where a group is joined. PEG 40 kDa = PEG (40 kDa) covalently attached to Cys; Palmitoyl = CCCCCCCCCCCCCCCC(=O)*; Nle = CCCC[C@H](N)C(=O)O; Aib = CC(C)(N)C(=O)O

Assays:
Assay type in all cases: cell-based
[1] = target: T1, GLP-1 receptor (Homo sapiens, UniProt P43220); test: cAMP synthesis functional assay (firefly luciferase reporter in HEK293 cells), GLP-1 receptor; settings: for EC50: read-out: GLP-1 Receptor EC50
T1 construct: expressed in transfected cells; host or cells: HEK293
T1 sequence (P43220 24-463, species assumed): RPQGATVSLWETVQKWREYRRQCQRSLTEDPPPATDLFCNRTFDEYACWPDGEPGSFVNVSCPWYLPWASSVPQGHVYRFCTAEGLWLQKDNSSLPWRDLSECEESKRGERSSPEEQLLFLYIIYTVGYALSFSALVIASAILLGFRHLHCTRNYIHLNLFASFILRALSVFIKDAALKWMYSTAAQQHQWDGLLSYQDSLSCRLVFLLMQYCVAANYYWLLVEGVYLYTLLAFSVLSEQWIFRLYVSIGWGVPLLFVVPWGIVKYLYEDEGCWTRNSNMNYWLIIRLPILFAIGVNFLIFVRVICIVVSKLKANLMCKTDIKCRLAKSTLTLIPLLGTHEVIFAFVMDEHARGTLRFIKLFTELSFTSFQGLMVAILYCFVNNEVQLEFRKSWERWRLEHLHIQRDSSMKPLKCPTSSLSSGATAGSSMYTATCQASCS

[2] = target: T2, GIP receptor (Homo sapiens, UniProt P48546); test: cAMP synthesis functional assay (firefly luciferase reporter in HEK293 cells), GIP receptor
T2 construct: expressed in transfected cells; host or cells: HEK293
T2 sequence (P48546 22-466): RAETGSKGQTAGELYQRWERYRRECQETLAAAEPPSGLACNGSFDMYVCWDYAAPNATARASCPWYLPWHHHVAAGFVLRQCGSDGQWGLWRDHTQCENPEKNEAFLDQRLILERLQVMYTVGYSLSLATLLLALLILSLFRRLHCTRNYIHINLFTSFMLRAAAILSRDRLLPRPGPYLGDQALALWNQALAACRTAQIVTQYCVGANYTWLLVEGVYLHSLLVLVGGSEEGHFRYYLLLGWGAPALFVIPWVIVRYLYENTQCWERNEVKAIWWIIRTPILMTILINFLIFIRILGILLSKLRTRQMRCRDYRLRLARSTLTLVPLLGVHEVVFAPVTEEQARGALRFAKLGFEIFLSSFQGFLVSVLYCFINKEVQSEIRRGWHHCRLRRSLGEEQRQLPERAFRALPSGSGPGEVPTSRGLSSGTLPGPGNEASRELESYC

[3] = target: T3, glucagon receptor (Homo sapiens, UniProt P47871); test: cAMP synthesis functional assay (firefly luciferase reporter in HEK293 cells), glucagon receptor; settings: for EC50: read-out: Glucagon Receptor EC50
T3 construct: expressed in transfected cells; host or cells: HEK293
T3 sequence (P47871 26-477): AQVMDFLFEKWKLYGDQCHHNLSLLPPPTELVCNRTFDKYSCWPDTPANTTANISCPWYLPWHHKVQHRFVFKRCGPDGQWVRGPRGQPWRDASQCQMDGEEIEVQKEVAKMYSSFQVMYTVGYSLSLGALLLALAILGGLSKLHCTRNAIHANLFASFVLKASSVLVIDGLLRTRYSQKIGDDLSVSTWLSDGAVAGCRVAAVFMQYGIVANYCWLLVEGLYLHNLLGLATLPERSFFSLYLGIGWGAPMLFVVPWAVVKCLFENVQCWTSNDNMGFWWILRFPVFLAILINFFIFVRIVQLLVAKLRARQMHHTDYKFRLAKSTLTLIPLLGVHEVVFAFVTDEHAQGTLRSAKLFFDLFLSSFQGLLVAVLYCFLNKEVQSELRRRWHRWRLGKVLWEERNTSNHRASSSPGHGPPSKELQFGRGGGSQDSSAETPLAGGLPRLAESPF

[4] = Table 4, relative to the native hormone
[5] = Table 1, relative to the native hormone of the indicated receptor
[6] = read-out: GIP Receptor EC50, Table 1

Compound	GLP-1 Receptor relative activity [1, 4] [%]	GIP Receptor relative activity [2, 4] [%]	Glucagon Receptor relative activity [3, 4] [%]	EC50 ([2]; GIP Receptor EC50, nM, Table 4) [nM]	GLP-1 Receptor relative activity [1, 5] [%]	GIP Receptor relative activity [2, 5] [%]	Glucagon Receptor relative activity [3, 5] [%]	EC50 ([1]; Table 1) [nM]	EC50 [2, 6] [nM]	EC50 ([3]; Table 1) [nM]
CC[C@H](C)[C@H](NC(=O)[C@H](CO)NC(=O)[C@H](Cc1ccc(O)cc1)NC(=O)[C@H](CC(=O)O)NC(=O)[C@H](CO)NC(=O)[C@@H](NC(=O)[C@H](Cc1ccccc1)NC(=O)[C@@H](NC(=O)CNC(=O)[C@H](CCC(N)=O)NC(=O)C(C)(C)NC(=O)[C@@H](N)Cc1ccc(O)cc1)[C@@H](C)O)[C@@H](C)CC)C(=O)N[C@@H](Cc1ccc(O)cc1)C(=O)N[C@@H](CC(C)C)C(=O)N[C@@H](CC(=O)O)C(=O)N[C@@H](CCCCN)C(=O)N[C@@H](CCC(N)=O)C(=O)N[C@@H](C)C(=O)N[C@@H](C)C(=O)NC(C)(C)C(=O)N[C@@H](CCC(=O)O)C(=O)N[C@@H](Cc1ccccc1)C(=O)N[C@H](C(=O)N[C@@H](CC(N)=O)C(=O)N[C@@H](Cc1c[nH]c2ccccc12)C(=O)N[C@@H](CC(C)C)C(=O)N[C@@H](CC(C)C)C(=O)N[C@@H](C)C(=O)NCC(=O)NCC(=O)N1CCC[C@H]1C(=O)N[C@@H](CO)C(=O)N[C@@H](CO)C(=O)NCC(=O)N[C@@H](C)C(=O)N1CCC[C@H]1C(=O)N1CCC[C@H]1C(=O)N1CCC[C@H]1C(=O)N[C@@H](CO)C(=O)N[C@@H](CCCCN)C(N)=O)C(C)C [mt-357] (H-Y[Aib]QGTFISDYSIYLDKQAA[Aib]EFVNWLLAGGPSSGAPPPSK-NH2; N-terminus assumed)	0.86	206.37	260.92							
CCCCCCCCCCCCCCCC(=O)NCCCC[C@H](NC(=O)[C@H](CO)NC(=O)[C@@H]1CCCN1C(=O)[C@@H]1CCCN1C(=O)[C@@H]1CCCN1C(=O)[C@H](C)NC(=O)CNC(=O)[C@H](CO)NC(=O)[C@H](CO)NC(=O)[C@@H]1CCCN1C(=O)CNC(=O)CNC(=O)[C@H](C)NC(=O)[C@H](CC(C)C)NC(=O)[C@H](CC(C)C)NC(=O)[C@H](Cc1c[nH]c2ccccc12)NC(=O)[C@H](CC(N)=O)NC(=O)[C@@H](NC(=O)[C@H](Cc1ccccc1)NC(=O)[C@H](CCC(=O)O)NC(=O)C(C)(C)NC(=O)[C@H](C)NC(=O)[C@H](C)NC(=O)[C@H](CCC(N)=O)NC(=O)[C@H](CCCCN)NC(=O)[C@H](CC(=O)O)NC(=O)[C@H](CC(C)C)NC(=O)[C@H](Cc1ccc(O)cc1)NC(=O)[C@@H](NC(=O)[C@H](CO)NC(=O)[C@H](Cc1ccc(O)cc1)NC(=O)[C@H](CC(=O)O)NC(=O)[C@H](CO)NC(=O)[C@@H](NC(=O)[C@H](Cc1ccccc1)NC(=O)[C@@H](NC(=O)CNC(=O)[C@H](CCC(N)=O)NC(=O)C(C)(C)NC(=O)[C@@H](N)Cc1ccc(O)cc1)[C@@H](C)O)[C@@H](C)CC)[C@@H](C)CC)C(C)C)C(N)=O [mt-358] (H-Y[Aib]QGTFISDYSIYLDKQAA[Aib]EFVNWLLAGGPSSGAPPPSK(Palmitoyl)-NH2; N-terminus assumed)	13.04	305.62	1266.00	0.0045						
Y[Aib]EGTFISDYSIAMDKIHQQDFVNWLLAQKGKKNWLKHNITQ-NH2 [mt-100]					0.01	306.25	0.01			
Y[Aib]EGTFTSDYSIYLDEQAAKEFVNWLLAGKGKKNWLKHNITQC-NH2 (lactam 16-20) [mt-206]					32.63	13.04	0.01			
mt-202: glucagon analog peptide, C-terminal amide (Y[Aib]QGTFVSDYSIYLDEQAAKEFVNWLLAGGPSSGAPPPSC(PEG 40 kDa)-NH2; lactam 16-20)					0.18	1.32	2.84	15.7	2.2	2.36
mt-203: glucagon analog peptide, C-terminal amide (Y[Aib]QGTFTSDYSIYLDEQAAKEFVNWL[Nle]AGGPSSGAPPPSC(PEG 40 kDa)-NH2; lactam 16-20)					20.71	0.24	1.38	0.14	12.2	4.84
